The record followed here is paper PMC9359912, “Pathogenic bacteria remodel central metabolic enzyme to build a cyclopropanol warhead” (Nature Chemistry, 2022).

The target in this test is T1, BurG (Burkholderia thailandensis, UniProt Q2T3G7).
T1 construct: gene ilvC-2

As for `NC(=O)C1=CN([C@@H]2O[C@H](COP(=O)(O)OP(=O)(O)OC[C@H]3O[C@@H](n4cnc5c(N)ncnc54)[C@H](O)[C@@H]3O)[C@@H](O)[C@H]2O)C=CC1` [NADH], the “X-ray co-crystal structure, 2.05 Å” value is “complexed between the two magnesium atoms and NADH in the active site”.
